Assay results as given in publication PMC12040169 (PLOS Biology, 2025).
Values joined by “and” are separate entries in the source; they are usually repeats but may differ in a detail not shown here. Equal values may be shown once.

Tests used:
[1] = in vitro; details: human, hela cells, % viability
[2] = tested on: HeLa; details: bulk resorufin, single well, 28.5 h, 10 µM, Bulk resorufin fluorescence

Compound | viability at 28.5 h, 10 µM [1] [%] | % viability [2]
Cc1ccc(S(=O)(=O)Nc2ccsc2C(=O)N2CCOCC2)cc1 [CBK004570] | 99.9 | 107%
O=C(CC1SC(NC2CC3C=CC2C3)=NC1=O)Nc1ccccc1Cl (centres unmarked) [CBK005795] | – | 109% and 72.5%
COc1ccc(-c2nc(SCc3ccccc3)[nH]c(=O)c2C#N)cc1 [CBK007169] | – | 107% and 84.8%
CNc1cc(NS(=O)(=O)c2ccc(N)cc2)nc(NC)n1 [CBK011865] | – | 93%
O=C(O)CCc1nn2c(-c3ccccc3)c(-c3ccccc3)nc2[nH]c1=O [CBK013564] | 86.5 | 94.1%
c1ccc(-c2csc3ncnc(NCc4ccco4)c23)cc1 [CBK017506] | 91.1 | 84.6%
O=S(=O)(/C=C/c1ccncc1)NCc1ccc2c(c1)OCO2 [CBK018566] | 91.3 | 92.8%
CCc1cc(CN(CC)CC)n[nH]1 [CBK018654] | 114 | 94.5%
CCn1c(C)nc2cc(C(=O)N3N=CCC3(O)C(F)(F)F)ccc21 (centres unmarked) [CBK019301] | 105 | 108%
Oc1ccccc1-c1cc(-c2cc3ccccc3o2)no1 [CBK019513] | 113 | 117%
COC(=O)c1ccccc1OC[C@@H]1CN(C(=O)C(C)(C)N)C[C@H]1c1cc2ccccc2o1 [CBK022525T] | 106 | 92.2%
CC(NC(=O)N(Cc1ccccc1C(F)(F)F)CC(C)(C)CN)c1ccccc1 (centres unmarked) [CBK026834C] | – | 118% and 97.8%
O=C(O)CCC(=O)Nc1ccc(Br)cn1 [CBK056920] | – | 89.9% and 110%
Nc1cc2cccnc2c(-c2cc(F)cc(F)c2)n1 [CBK061908] | – | 80.4% and 85.8% and 103%
O=C1NCCN1CCNS(=O)(=O)c1csc2ccccc12 [CBK062602] | – | 117% and 90%
CN(C(=O)CC1SC(NCC2CCCCC2)=NC1=O)c1ccccc1 (centres unmarked) [CBK067371] | – | 87.9% and 110%
COC(=O)Cn1nnc(-c2ccc(C)cc2)n1 [CBK068195] | – | 123% and 93.2%
CC(C)C(=O)Nc1cc2cccnc2c(-c2cccc(C(F)(F)F)c2)n1 [CBK081266] | – | 125% and 100%
COc1ccc(C(C)C)cc1-c1cnc2ncccc2c1N [CBK083686] | – | 108% and 81.3%
CCOC(=O)CN1CCC(Oc2nccnc2OCCN2C(=O)CCC2=O)CC1 [CBK084348] | – | 120% and 80%
c1ccc(CN2CCC(Oc3cncc(OCCN4CCOCC4)n3)C2)cc1 (centres unmarked) [CBK084478] | – | 107% and 84%
O=C(Nc1cccnc1)c1cnc2cc(C(F)(F)F)ccc2c1O [CBK107474T] | – | 88%
O=C(Nc1cc(-c2ccncc2)c[nH]c1=O)c1ccc(Cl)c(Cl)c1 [CBK115868] | – | 94.1% and 119%
COc1cc2c(cc1OC)CN(C(=O)c1ccc3occc3c1)CC2 [CBK122746] | – | 66.2% and 36.8%
O=C(c1cccc(C(F)(F)F)c1)N1CCCC2(CCN(C(=O)c3ccoc3)C2)C1 (centres unmarked) [CBK131616] | – | 116% and 88%
Cc1onc(-c2ccccc2)c1CNC(=O)C1COc2ccccc2O1 (centres unmarked) [CBK144086] | – | 104% and 80.3%
O=c1cc(O)c2ccccc2n1Cc1ccccc1 [CBK218877] | – | 107% and 84.4%
